# Legend:
# [1] = system: aorta (spirally cut strips); assay: Smooth Muscle Relaxant: noradrenaline-contracted rat aorta strips; parameters: species or system male Wistar rats; settings: contraction by noradrenaline 1 μM, 37° C.
# Experimental: The aorta were carefully removed from male Wistar rats, cleaned of fat and extraneous tissue. Spirally cut strips of the aorta were placed in a 25 ml organ bath containing Tyrode solution of the following composition (mM); NaCl, 137; KCl, 2.7; CaCl2, 1.8; NaH2 PO4, 0.4; NaHCO3, 12.0; MgSO4, 1.1; glucose, 5.6. The bath was maintained at 37° C. and bubbled with 95% O2 and 5% CO2. The spirally cut strip was stretched to a resting force of 1.0 g, and the isometric contraction was recorded via a force development transducer on an ink writing recorder. Tissues were equilibrated for 60 minutes before contraction was induced by noradrenaline (NA, 1 μM). The test compounds were cumulatively added to organ bath in increasing concentrations ranging from 10^-8 to 10^-5 M, after maximum stable constriction to NA had been achieved.
# corpora cavernosa = assay: Effect on the Relaxation Elicited by Electrical Field Stimulation in rat Corpora Cavernosa; settings: compound at 10^-7 M
# Experimental: (b) Effect of Test Compound on the Relaxation Elicited by Electrical Field Stimulation in rat Corpora Cavernosa.
# The rat erectile tissue strip prepared according to the method described by Italiano et al. (Pharmacological Research, 30, No4, 1994) was placed 25 ml organ bath containing Krebs-Ringer solution. The bath was maintained at 37° C. and bubbled with 95% O2 and 5% CO2. The solution also contained atropine (1 μM) and guanethidine (50 μM). The erectile tissue strip was stretched with a resting force of 0.25 g, and isometric contraction were recorded via force development transducer on a recorder. The bipolar platinum electrode connected to the electric stimulator was placed around the strip.
# The strip was equilibrated in the Krebs-Ringer solution for about 60 minutes and preconstructed by 0.1 mM norepinephrine to ascertain the responsibility of each preparation. The strip was washed several times, and then constricted by 0.1 mM norepinephrine. After getting stable contractile response to norepinephrine, the first electrical field stimulation (1 to 45 Hz, 20V, 0.5 msec duration, 90 sec interval) was delivered. 30 minutes after adding the tested compound, the second electrical field stimulation was delivered.
structure (smiles),measurement,setting,value
"CCCc1c(C(=O)C(C)C)c2ccc(C(N)=O)cc2n1Cc1ccccc1Cl [Example 6, 1-(2-chlorobenzyl)-3-isobutyryl-2-propylindole-6-carboxamide]",IC50,[1],< 0.1 µM
same,relaxation of corpora cavernosa elicited by electrical field stimulation,corpora cavernosa,potentiated relaxation of corpora cavernosa elicited by electrical field stimulation
same,Relaxant response elicited by 30 Hz,corpora cavernosa; control 14.3%,17.1%

# Reference: patent US6069156A, “Indole derivatives as cGMP-PDE inhibitors” (Fujisawa Pharmaceutical Co., Ltd., priority 1995, dated 2000)
